This is an account of results in patent US9169241B2, “Quinolinyloxyphenylsulfonamides” (Max-Planck-Gesellschaft Zur Forderung der Wissenschaften …, priority 2009, dated 2015).

Series [1] addresses T1, wild type AXL (wtAXL) receptor tyrosine kinase (Homo sapiens, UniProt P30530).
T1 construct: WtAXL cDNA was cloned into vector pLXSN(ESK) and transfected into Phoenix E packaging cells; expressed in transfected cells; host or cells: NIH3T3 N7 (mouse fibroblasts), retrovirally infected, clone 22
T1 sequence (P30530 26-894): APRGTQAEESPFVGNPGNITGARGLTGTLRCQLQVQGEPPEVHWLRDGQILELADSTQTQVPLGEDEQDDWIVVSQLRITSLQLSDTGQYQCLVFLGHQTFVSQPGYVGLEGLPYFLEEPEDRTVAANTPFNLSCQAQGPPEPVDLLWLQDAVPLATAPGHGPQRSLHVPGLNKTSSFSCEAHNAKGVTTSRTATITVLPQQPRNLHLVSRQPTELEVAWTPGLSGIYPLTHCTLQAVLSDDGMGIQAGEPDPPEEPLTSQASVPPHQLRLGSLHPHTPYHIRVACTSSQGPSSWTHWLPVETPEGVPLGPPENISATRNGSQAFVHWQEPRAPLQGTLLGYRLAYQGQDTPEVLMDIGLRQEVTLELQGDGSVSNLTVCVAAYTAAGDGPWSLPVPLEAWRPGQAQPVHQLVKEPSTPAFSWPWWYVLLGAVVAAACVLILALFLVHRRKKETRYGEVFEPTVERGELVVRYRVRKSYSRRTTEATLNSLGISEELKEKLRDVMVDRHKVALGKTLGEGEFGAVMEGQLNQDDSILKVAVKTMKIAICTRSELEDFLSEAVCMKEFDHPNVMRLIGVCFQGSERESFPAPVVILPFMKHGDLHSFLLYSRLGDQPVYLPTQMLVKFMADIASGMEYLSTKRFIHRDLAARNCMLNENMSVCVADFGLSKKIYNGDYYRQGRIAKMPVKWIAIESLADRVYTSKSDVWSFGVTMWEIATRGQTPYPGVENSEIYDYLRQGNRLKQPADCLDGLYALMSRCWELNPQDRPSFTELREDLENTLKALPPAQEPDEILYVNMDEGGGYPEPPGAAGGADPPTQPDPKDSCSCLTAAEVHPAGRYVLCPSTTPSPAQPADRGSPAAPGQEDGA
Description: NIH-3T3-AXL cellular kinase assay (pY-AXL-ELISA). The format is cell-based. As to conditions: NIH-3T3-AXL (clone 22) cells, serum depleted, compounds 1 h; Table Ia. The procedure, abridged: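 Phospho-AXL was quantified by ELISA in lysates (4G10-biotin, streptavidin-AP, AttoPhos, 430/560 nm read at 90 min). The cells were monoclonal NIH3T3 lines stably transduced with human wtAXL, exposed to serial compound dilutions for 1 h before lysis.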
(In general: In an ELISA, binding on a coated surface is turned into a signal by an enzyme label.)

Series [2] deals with Hs578T. Description: Cell vitality assay (ATP assay, CellTiter-Glo). It counts as cell-based. As to conditions: Homo sapiens, Hs-578T; HS578T cell line, 72 h; Table Ib; read-out: IC50 ATP-Assay HS578T after 72 h. In a few lines:
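IC50s reflect 50% loss of ATP-dependent luminescence versus DMSO control after a 72 h treatment of 1000 cells per well across 0.195–12.5 μM compound.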
On the technique in general: ATP-based viability assays read luminescence as a measure of living cells.

Series [3] deals with Hs578T. Description: Wound healing migration assay. The format is cell-based. The settings on record: Homo sapiens, Hs-578T; HS578T cell line; Table Ib. In a few lines:
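Compound exposure at 12.5, 6.25 and 3.125 μM, with DMSO control, on scratch-wounded monolayers (150000 cells/24 well, overnight). Wound closure imaged by microscopy, fixed with crystal violet after 48 h or 72 h depending on cell line; IC50 is the concentration giving 50% wound size between t0 and t48/t72.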

Series [4] deals with Hs578T. Description: Matrigel outgrowth assay/branching assay. It counts as cell-based. The settings on record: Homo sapiens, Hs-578T; HS578T cell line; Table Ib; read-out: Total branching inhibition in Matrigel HS578T. The procedure, abridged:
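Invasive outgrowth into a 3 mg/ml Matrigel gel is judged from images taken after 48, 72 and 96 h of exposure to 3.125, 1.56 or 0.78 μM compound, with DMSO as control. Positive means total inhibition of branching.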

`COc1cc2c(Oc3ccc(NS(=O)(=O)c4cccs4)cc3F)ccnc2cc1OCCCN(C)C` [Example 186, Thiophene-2-sulfonic acid {4-[7-(3-dimethylamino-propoxy)-6-methoxy-quinolin-4-yloxy]-3-fluoro-phenyl}-amide] came in with a melting point of 186 to 188 °C. The molecule also returned an IC50 in series [1] of less than 0.5 µM. Besides, in the series with Hs578T [2], the IC50 was no more than 12.5 µM. In the series with Hs578T [3], this molecule had an IC50 of no more than 12.5 µM. The IC50 in the series on Hs578T [4] fell in the range of 10 to 25 µM.

In turn, `COc1cc2c(Oc3cc(NS(=O)(=O)c4cc(Cl)ccc4Cl)ccc3F)ccnc2cc1OCCCN1CCC(C)CC1` [Example 191, 2,5-Dichloro-N-(4-fluoro-3-{6-methoxy-7-[3-(4-methyl-piperidin-1-yl)-propoxy]-quinolin-4-yloxy}-phenyl)-benzenesulfonamide] yielded a melting point of 127 to 130 °C. In series [1], this molecule came in with an IC50 of 0.5 to 3 µM. Also, in the series on Hs578T [2], the IC50 was no more than 12.5 µM. Moreover, in the series with Hs578T [3], the IC50 was no more than 12.5 µM. For the same molecule, in the series with Hs578T [4], the IC50 fell in the range of 10 to 25 µM.

With `COc1cc2c(Oc3ccc(Cl)c(NS(=O)(=O)c4cc(F)ccc4F)c3)ccnc2cc1OCCCN1CCC(C)CC1` [Example 193, N-(2-Chloro-5-{6-methoxy-7-[3-(4-methyl-piperidin-1-yl)-propoxy]-quinolin-4-yloxy}-phenyl)-2,5-difluoro-benzenesulfonamide], the melting point was 206 to 208 °C. In addition, the IC50 in series [1] was in the range of 0.5 to 3 µM. In addition, in the series on Hs578T [2], the IC50 was 12.5 to 50 µM. In the series on Hs578T [3], the IC50 was no more than 12.5 µM. Moreover, the IC50 with Hs578T [4] lay in the range of 10 to 25 µM.

Consider `COc1cc2c(Oc3ccc(Cl)c(NS(=O)(=O)c4c(F)cccc4F)c3)ccnc2cc1OCCCN1CCC(C)CC1` [Example 194, N-(2-Chloro-5-{6-methoxy-7-[3-(4-methyl-piperidin-1-yl)-propoxy]-quinolin-4-yloxy}-phenyl)-2,6-difluoro-benzenesulfonamide], for which the melting point fell in the range of 222 to 226 °C. The molecule further returned an IC50 in series [1] of 0.5 to 3 µM. Moreover, the IC50 in the series with Hs578T [2] lay in the range of 12.5 to 50 µM. This molecule also came in with an IC50 in the series with Hs578T [3] of 12.5 to 50 µM. Besides, in the series with Hs578T [4], the IC50 fell in the range of 10 to 25 µM.

In turn, `COc1cc2c(Oc3ccc(Cl)c(NS(=O)(=O)c4cc(Cl)ccc4Cl)c3)ccnc2cc1OCCCN1CCC(C)CC1` [Example 197, 2,5-Dichloro-N-(2-chloro-5-{6-methoxy-7-[3-(4-methyl-piperidin-1-yl)-propoxy]-quinolin-4-yloxy}-phenyl)-benzenesulfonamide] returned a melting point of 223 to 224 °C. In series [1], the IC50 fell in the range of 0.5 to 3 µM. In the series on Hs578T [2], the IC50 fell in the range of 12.5 to 50 µM. The same molecule displayed an IC50 with Hs578T [3] of 12.5 to 50 µM. Further, the IC50 in the series with Hs578T [4] is 10 to 25 µM.

`COc1cc2c(Oc3ccc(Cl)c(NS(=O)(=O)c4c(Cl)cccc4Cl)c3)ccnc2cc1OCCCN1CCC(C)CC1` [Example 198, 2,6-Dichloro-N-(2-chloro-5-{6-methoxy-7-[3-(4-methyl-piperidin-1-yl)-propoxy]-quinolin-4-yloxy}-phenyl)-benzenesulfonamide] gave a melting point of 206 to 208 °C. In addition, the IC50 in series [1] fell in the range of 0.5 to 3 µM. In addition, the IC50 with Hs578T [2] lay in the range of 12.5 to 50 µM. In the series on Hs578T [3], this molecule gave an IC50 of 12.5 to 50 µM. Further, in the series with Hs578T [4], the IC50 is 10 to 25 µM.

In turn, `COc1ccc2nccc(Oc3ccc(NS(=O)(=O)c4cc(F)ccc4F)cc3F)c2c1` [Example 199, 2,5-Difluoro-N-[3-fluoro-4-(6-methoxy-quinolin-4-yloxy)-phenyl]-benzenesulfonamide] returned a melting point of 249 to 250 °C. This molecule also displayed an IC50 in series [1] of 0.5 to 3 µM. In addition, the IC50 in the series on Hs578T [2] fell in the range of 12.5 to 50 µM. The IC50 with Hs578T [3] lay within 12.5 to 50 µM. Also, the IC50 in the series with Hs578T [4] lay within 10 to 25 µM.

In turn, `COc1ccc2nccc(Oc3ccc(NS(=O)(=O)c4ccccc4C(F)(F)F)cc3F)c2c1` [Example 201, N-[3-Fluoro-4-(6-methoxy-quinolin-4-yloxy)-phenyl]-2-trifluoromethyl-benzenesulfonamide] gave a melting point of 168 to 169 °C. Further, the IC50 in series [1] lay in the range of 0.5 to 3 µM. In the series with Hs578T [2], the IC50 fell in the range of 12.5 to 50 µM. The IC50 with Hs578T [3] was in the range of 12.5 to 50 µM. The IC50 with Hs578T [4] lay within 10 to 25 µM.

In turn, `COc1ccc2nccc(Oc3ccc(NS(=O)(=O)c4ccccc4OC(F)(F)F)cc3F)c2c1` [Example 202, N-[3-Fluoro-4-(6-methoxy-quinolin-4-yloxy)-phenyl]-2-trifluoromethoxy-benzenesulfonamide] had a melting point of 175 to 176 °C. This molecule had an IC50 in series [1] of 0.5 to 3 µM. In addition, the IC50 in the series with Hs578T [2] was 12.5 to 50 µM. Further, in the series on Hs578T [3], the IC50 was in the range of 12.5 to 50 µM. Also, in the series on Hs578T [4], the IC50 lay within 10 to 25 µM.

In turn, `COc1cc2c(Oc3ccc(NS(=O)(=O)c4cc(F)ccc4F)cc3OC)ccnc2cc1OCCCN1CCC(C)CC1` [Example 207, 2,5-Difluoro-N-(3-methoxy-4-{6-methoxy-7-[3-(4-methyl-piperidin-1-yl)-propoxy]-quinolin-4-yloxy}-phenyl)-benzenesulfonamide] returned a melting point of 170 to 172 °C. In addition, the IC50 in series [1] was in the range of 0.5 to 3 µM. Further, the IC50 with Hs578T [2] is no more than 12.5 µM. In the series on Hs578T [3], this molecule showed an IC50 of no more than 12.5 µM. In addition, the IC50 in the series with Hs578T [4] lay in the range of 10 to 25 µM.

`COc1cc2c(Oc3ccc(NS(=O)(=O)c4ccccc4C(F)(F)F)cc3OC)ccnc2cc1OCCCN1CCC(C)CC1` [Example 208, N-(3-Methoxy-4-{6-methoxy-7-[3-(4-methyl-piperidin-1-yl)-propoxy]-quinolin-4-yloxy}-phenyl)-2-trifluoromethyl-benzenesulfonamide] returned a melting point of 216 to 218 °C. The same molecule gave an IC50 in series [1] of less than 0.5 µM. For the same molecule, in the series on Hs578T [2], the IC50 is no more than 12.5 µM. In the series with Hs578T [3], this molecule yielded an IC50 of 12.5 to 50 µM. The IC50 in the series on Hs578T [4] fell in the range of 10 to 25 µM.

By melting point is commonly meant the temperature, or range, at which the solid turns liquid.
